Publication PMC12260505, “First-in-Human Phase I/IIa Study of the First-in-Class CDK2/4/6 Inhibitor PF-06873600 Alone or with Endocrine Therapy in Patients with Breast Cancer” (Clinical Cancer Research, 2025)

Tests used:
Ki67 = assay: IHC of Ki67 in paired tumor biopsies; assay type: in vivo, human
Description: (§1) The pharmacodynamic effects of PF-06873600 were assessed by IHC staining of pRb and Ki67 in tumor biopsy samples collected at screening and day 1 of cycle 2 (4 hours after dose). Immunostaining was performed on […] formalin-fixed, paraffin-embedded tissue sections using rabbit monoclonal anti-Rb (Ser807/811) antibody (clone D20B12, Cell Signaling Technology) and rabbit monoclonal anti-Ki67 antibody (Ventana Medical Systems), respectively. pRb and Ki67 expressions were assessed semiquantitatively by a board-certified pathologist. Scoring was performed using the percentage of cells positive for Ki67 or a histo-score (H-score) methodology for pRb based on staining intensity and the percentage of positive cells. Intensity was scored as 0, none; 1, weak; 2, moderate; or 3, strong, and H-scores were calculated as follows: H-score = [fraction of cells with intensity grade 1 (%)] + [fraction of cells with intensity grade 2 (%) × 2] + [fraction of cells with intensity grade 3 (%) × 3].

phosphorylated Rb (pRb) = assay: IHC of pRb (H-score) in paired tumor biopsies; assay type: in vivo, human
Description: as §1

ctDNA = ctDNA molecular response (Guardant360, meanVAF change); assay type: in vivo, human; conditions: plus fulvestrant; for Median ctDNA molecular response: combined parts 2A and 2C; for Median change in ctDNA meanVAF: cycle 1 day 15 from cycle 1 day 1
Description: Plasma samples were collected at cycle 1 day 1, cycle 1 day 15, and the end of treatment (EOT). Genomic alterations in ctDNA were detected using the next-generation sequencing–based 74-gene Guardant360 platform (Guardant Health). ctDNA molecular response between the two samples was determined as described by Mack and colleagues ([9]). Briefly, after subtracting germline variants and potential clonal hematopoiesis of indeterminate potential, the mean variant allele frequency (meanVAF) of somatic variants (including single-nucleotide variants, insertions and deletions, and fusions) with a mutant molecular count above a proprietary threshold was calculated for each sample by averaging the VAFs of all variants detected among the two samples. The relative change of meanVAF of the posttreatment sample from the baseline sample was then calculated as the ctDNA molecular response. Samples lacking somatic variants with sufficient mutant molecular counts or the absence of any somatic alterations at both time points were considered ctDNA low and not evaluable for molecular response.

[1] = tested on: HR+/HER2− metastatic breast cancer; assay: Antitumor activity by RECIST version 1.1; assay type: in vivo, human; conditions: for Objective response (CR + PR; pts with HR+/HER2− breast cancer with measurable disease at baseline and prior CDK4/6i): 40 such pts
Description: Antitumor activity was assessed through radiological tumor assessments conducted at baseline, during treatment, whenever disease progression was suspected (e.g., symptomatic deterioration), and at the time of withdrawal from treatment (if not done in the previous 8 weeks). Responses were assessed using RECIST version 1.1.
DLT was the primary endpoint of the study, summarized by dose level using the per-protocol analysis set for patients in the dose escalation portion of the study. Efficacy analysis was summarized by dose cohorts for part 2 of the study. For part 1, no formal efficacy analysis was presented. For part 2, tumor response was presented in the form of patient data listings that included, but were not limited to, tumor type, starting dose, tumor response at each visit, and best overall response. In addition, progression date, death date, date of first response, last tumor assessment date, and date of last contact were listed. ORR, PFS, overall survival, TTP, and DoR were summarized and presented as data permitted. For response-based metrics (best overall response, ORR, and DoR), analyses were presented on the basis of confirmed responses. Analyses of PFS and TTP were defined as the time from the date of the first dose. Summaries of the number and percentage of patients with PFS and TTP and data listings by tumor type and dose were generated based on data availability. The 95% confidence intervals (CI) for medians and quartiles were generated based on the Brookmeyer–Crowley method, whereas CIs for the estimated probability of an event at a particular time point were generated using the Greenwood formula. DoR was summarized with the number of responders, the number and percentage of events/censorship, mean, standard deviation, and minimum, maximum, and median duration in units of months. ORR was summarized by the number of patients meeting respective criteria as a percentage. The 95% CIs were generated for PFS, TTP, and ORR based on available data.

CDK4 = target: CDK4; set-up: method as in PMID 34110834; conditions: cited from earlier work
CDK9 = target: CDK9; set-up: method as in PMID 34110834; conditions: cited from earlier work
[2] = IR 25 mg twice daily monotherapy, cycle 2 day 1, HR+/HER2− mBC tumor biopsies
[3] = IR 25 mg twice daily/fulvestrant combination, cycle 2 day 1
[4] = Part 2A 25 mg twice daily IR + Fulvestrant, n = 45, response-evaluable set
[5] = Part 2C 25 mg twice daily IR + Fulvestrant, n = 22, response-evaluable set
[6] = Part 2 total (2A + 2C, + Fulvestrant), N = 67

For C[C@@]1(O)CCC[C@H]1n1c(=O)c(C(F)F)cc2cnc(NC3CCN(S(C)(=O)=O)CC3)nc21 [PF-06873600], the “Median percentage change in Ki67-positive cells from baseline” value (Ki67; [2]) was “–11.7%”, the “Median percentage change in Ki67-positive cells from baseline” value (Ki67; [3]) was “–35.9%” and the “Median change in pRb H-score from baseline” value (phosphorylated Rb (pRb); [2]) was “–16.5%”. For the same compound, the “Median percentage change in pRb H-score from baseline” value (phosphorylated Rb (pRb); [3]) was “–31.9%”, the “Median ctDNA molecular response” value (ctDNA; EOT) was 6% and the “Median ctDNA molecular response” value (ctDNA; cycle 1 day 15) was −60%. For the same compound, the “Median change in ctDNA meanVAF” value (ctDNA; part 2A (28 evaluable)) was −61%, the “Median change in ctDNA meanVAF” value (ctDNA; part 2C (14 evaluable)) was −54% and the “Objective response (CR + PR; pts with HR+/HER2− breast cancer with measurable disease at baseline and prior CDK4/6i)” value ([1]; Part 2A 25 mg twice daily IR + Fulvestrant) was 3 (7.5) n (%). The “Objective response (pts with HR+/HER2− breast cancer with measurable disease at baseline)” value ([1]; Part 2A 25 mg twice daily IR + Fulvestrant, 44 such pts) was 3 (6.8) n (%), the “Clinical benefit response (CR, PR, or ≥24 weeks stable disease)” value (“Clinical benefit response” for short) [1, 4] was 19 (42.2) n (%) and the “Confirmed best overall response, CR” value [1, 4] was 0 n (%). The “Confirmed best overall response, NE (not evaluable)” value [1, 4] was 1 (2.2) n (%), the “Confirmed best overall response, Non-CR/non-PD” value [1, 4] was 0 n (%) and the “Confirmed best overall response, PR” value [1, 4] was 3 (6.7) n (%). For the same compound, the “Confirmed best overall response, Progressive disease (PD)” value (from here on “Confirmed best overall response … (PD)”) [1, 4] was 11 (24.4) n (%), the “Confirmed best overall response, Stable disease” value [1, 4] was 30 (66.7) n (%) and the “Disease control (CR + PR + stable disease + non-CR/non-PD)” value [1, 4] was 33 (73.3) n (%). The “Objective response (CR + PR)” value [1, 4] was 3 (6.7) n (%), the “Objective response (pts with HR+/HER2− breast cancer with measurable disease at baseline)” value ([1]; Part 2C 25 mg twice daily IR + Fulvestrant, 20 such pts) was 5 (25.0) n (%) and the “Clinical benefit response” value [1, 5] was 13 (59.1) n (%). For the same compound, the “Confirmed best overall response, CR” value [1, 5] was 0 n (%), the “Confirmed best overall response, NE (not evaluable)” value [1, 5] was 1 (4.5) n (%) and the “Confirmed best overall response, Non-CR/non-PD” value [1, 5] was 1 (4.5) n (%). The “Confirmed best overall response, PR” value [1, 5] was 5 (22.7) n (%), the “Confirmed best overall response … (PD)” value [1, 5] was 2 (9.1) n (%) and the “Confirmed best overall response, Stable disease” value [1, 5] was 13 (59.1) n (%). For the same compound, the “Disease control (CR + PR + stable disease + non-CR/non-PD)” value [1, 5] was 19 (86.4) n (%), the “Objective response (CR + PR)” value [1, 5] was 5 (22.7) n (%) and the “Clinical benefit response” value [1, 6] was 32 (47.8) n (%). For the same compound, the “Confirmed best overall response, CR” value [1, 6] was 0 n (%), the “Confirmed best overall response, NE (not evaluable)” value [1, 6] was 2 (3.0) n (%) and the “Confirmed best overall response, Non-CR/non-PD” value [1, 6] was 1 (1.5) n (%). For the same compound, the “Confirmed best overall response, PR” value [1, 6] was 8 (11.9) n (%), the “Confirmed best overall response … (PD)” value [1, 6] was 13 (19.4) n (%) and the “Confirmed best overall response, Stable disease” value [1, 6] was 43 (64.2) n (%). The “Disease control (CR + PR + stable disease + non-CR/non-PD)” value [1, 6] was 52 (77.6) n (%), the “Objective response (CR + PR)” value [1, 6] was 8 (11.9) n (%) and the “Objective response (CR + PR; pts with HR+/HER2− breast cancer with measurable disease at baseline and prior CDK4/6i)” value ([1]; Part 2 total (+ Fulvestrant)) was 3 (7.5) n (%). The “Objective response (pts with HR+/HER2− breast cancer with measurable disease at baseline)” value ([1]; Part 2 total (+ Fulvestrant), 64 such pts) was 8 (12.5) n (%), the “Partial responses (PR), patients” value ([1]; part 1 dose escalation, 78 patients (parts 1A, 1B, 1C)) was 3.8% and the Ki (CDK4) was 0.00125 µM. The Ki (CDK9) was 0.0196 µM.
